The text below walks through data of ChEMBL document CHEMBL1142528 (J Med Chem, 2008).

As a reminder, the Ki is a dissociation constant, usually derived from enzyme kinetics or from competition with a known ligand. Read a high Ki as a looser hold on the target.

Test [1] deals with 5-hydroxytryptamine receptor 2A (Homo sapiens, UniProt P28223). The test can be described thus: Displacement of [3H]ketanserin from 5HT2A receptor expressed in NIH3T3 cells. The format is cell-based. On the technique in general: Displacement assays read how much labelled ligand stays bound in the presence of the test substance.
The target of test [2] is 5-hydroxytryptamine receptor 2A (Homo sapiens, UniProt P28223, F340L). The test can be described thus: Displacement of [3H]ketanserein from 5HT2A receptor F340L mutant expressed in NIH3T3 cells. The format is cell-based.
Test [3] addresses Sodium-dependent serotonin transporter (Homo sapiens, UniProt P31645). As to the kind of experiment: Displacement of [3H]paroxitine from SERT.
The target of test [4] is Sodium-dependent noradrenaline transporter (Homo sapiens, UniProt P23975). The test can be described thus: Displacement of [3H]nisoxitine from NET.
In test [5] the target is T1, 5-hydroxytryptamine receptor 2C (Homo sapiens, UniProt P28335).
T1 sequence (P28335 whole entry): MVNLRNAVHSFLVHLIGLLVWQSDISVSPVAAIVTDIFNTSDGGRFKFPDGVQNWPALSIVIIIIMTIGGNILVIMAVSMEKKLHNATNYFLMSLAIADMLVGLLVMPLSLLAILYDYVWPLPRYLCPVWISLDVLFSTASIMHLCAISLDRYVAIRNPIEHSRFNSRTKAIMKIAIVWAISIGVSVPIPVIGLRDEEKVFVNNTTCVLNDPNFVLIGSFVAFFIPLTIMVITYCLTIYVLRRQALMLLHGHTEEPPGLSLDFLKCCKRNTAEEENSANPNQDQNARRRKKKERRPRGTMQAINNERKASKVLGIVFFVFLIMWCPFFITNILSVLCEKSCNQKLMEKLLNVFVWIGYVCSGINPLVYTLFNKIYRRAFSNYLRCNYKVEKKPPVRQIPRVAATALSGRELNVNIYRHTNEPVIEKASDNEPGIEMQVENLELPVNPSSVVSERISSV
The test can be described thus: Displacement of [3H]mesulergine from 5HT2C receptor.

Test [6] concerns the target D(2) dopamine receptor (Homo sapiens, UniProt P14416). As to the kind of experiment: Displacement of [3H]spiperone from dopamine D2 receptor.

Structures are written as SMILES.

Sequence of 5-hydroxytryptamine receptor 2A (Homo sapiens, UniProt P28223) (P28223 whole entry): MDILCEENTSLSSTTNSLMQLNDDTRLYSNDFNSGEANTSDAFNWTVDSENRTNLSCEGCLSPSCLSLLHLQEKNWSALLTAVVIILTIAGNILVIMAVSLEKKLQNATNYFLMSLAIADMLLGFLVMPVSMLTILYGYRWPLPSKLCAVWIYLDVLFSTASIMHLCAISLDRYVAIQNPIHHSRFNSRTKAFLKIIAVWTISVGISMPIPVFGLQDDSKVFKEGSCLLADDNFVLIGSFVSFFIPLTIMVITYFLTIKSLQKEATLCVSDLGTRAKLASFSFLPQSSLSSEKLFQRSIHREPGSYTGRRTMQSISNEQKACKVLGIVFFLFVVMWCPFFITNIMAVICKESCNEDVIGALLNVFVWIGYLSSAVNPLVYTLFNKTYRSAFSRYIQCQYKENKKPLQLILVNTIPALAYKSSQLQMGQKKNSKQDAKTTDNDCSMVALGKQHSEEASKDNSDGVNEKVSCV
Sequence of Sodium-dependent serotonin transporter (P31645 whole entry): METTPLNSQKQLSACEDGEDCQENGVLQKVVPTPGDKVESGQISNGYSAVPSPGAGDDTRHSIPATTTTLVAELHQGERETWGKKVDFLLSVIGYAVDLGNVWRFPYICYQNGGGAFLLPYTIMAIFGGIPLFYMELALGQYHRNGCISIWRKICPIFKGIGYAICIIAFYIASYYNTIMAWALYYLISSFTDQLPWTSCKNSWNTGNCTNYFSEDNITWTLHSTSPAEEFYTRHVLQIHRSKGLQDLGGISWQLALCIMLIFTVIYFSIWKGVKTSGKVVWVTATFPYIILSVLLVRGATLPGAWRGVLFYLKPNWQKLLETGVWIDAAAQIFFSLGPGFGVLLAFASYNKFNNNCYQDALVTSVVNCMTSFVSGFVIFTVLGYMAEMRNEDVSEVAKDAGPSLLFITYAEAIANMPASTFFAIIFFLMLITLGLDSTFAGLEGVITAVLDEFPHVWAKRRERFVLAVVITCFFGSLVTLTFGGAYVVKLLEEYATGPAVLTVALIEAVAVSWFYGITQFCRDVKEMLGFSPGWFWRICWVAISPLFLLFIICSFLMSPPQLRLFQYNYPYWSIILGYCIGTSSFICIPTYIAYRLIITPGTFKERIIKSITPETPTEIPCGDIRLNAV
Sequence of D(2) dopamine receptor (P14416 whole entry): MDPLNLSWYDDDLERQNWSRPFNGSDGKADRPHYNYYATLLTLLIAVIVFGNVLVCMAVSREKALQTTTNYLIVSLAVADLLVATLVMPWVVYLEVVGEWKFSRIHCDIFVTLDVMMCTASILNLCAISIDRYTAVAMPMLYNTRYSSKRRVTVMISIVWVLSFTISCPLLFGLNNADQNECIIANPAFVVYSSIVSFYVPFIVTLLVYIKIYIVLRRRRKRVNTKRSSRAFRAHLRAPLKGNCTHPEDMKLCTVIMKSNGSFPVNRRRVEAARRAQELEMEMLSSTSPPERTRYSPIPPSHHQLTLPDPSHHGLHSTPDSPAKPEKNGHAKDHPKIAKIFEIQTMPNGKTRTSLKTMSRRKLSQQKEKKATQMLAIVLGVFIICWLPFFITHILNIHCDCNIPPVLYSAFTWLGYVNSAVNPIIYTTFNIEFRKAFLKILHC
Sequence of Sodium-dependent noradrenaline transporter (P23975 whole entry): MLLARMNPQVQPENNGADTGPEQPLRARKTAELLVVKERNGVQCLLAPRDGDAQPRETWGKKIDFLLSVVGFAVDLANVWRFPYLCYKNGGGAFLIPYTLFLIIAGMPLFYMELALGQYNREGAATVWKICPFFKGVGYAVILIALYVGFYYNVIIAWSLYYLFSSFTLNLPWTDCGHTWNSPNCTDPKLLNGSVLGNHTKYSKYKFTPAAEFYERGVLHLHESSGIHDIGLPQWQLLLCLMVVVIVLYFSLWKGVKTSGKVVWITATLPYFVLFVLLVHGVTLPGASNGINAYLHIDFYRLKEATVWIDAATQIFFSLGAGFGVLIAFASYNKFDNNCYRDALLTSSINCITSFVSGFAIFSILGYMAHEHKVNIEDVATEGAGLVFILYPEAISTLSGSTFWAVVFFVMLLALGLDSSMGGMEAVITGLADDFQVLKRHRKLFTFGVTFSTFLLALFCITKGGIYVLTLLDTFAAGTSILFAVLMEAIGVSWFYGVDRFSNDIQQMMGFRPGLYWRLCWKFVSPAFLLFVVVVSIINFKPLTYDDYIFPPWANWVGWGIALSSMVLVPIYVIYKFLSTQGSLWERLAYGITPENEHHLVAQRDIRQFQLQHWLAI
Sequence of 5-hydroxytryptamine receptor 2A (Homo sapiens, UniProt P28223, F340L) (P28223 whole entry F340L): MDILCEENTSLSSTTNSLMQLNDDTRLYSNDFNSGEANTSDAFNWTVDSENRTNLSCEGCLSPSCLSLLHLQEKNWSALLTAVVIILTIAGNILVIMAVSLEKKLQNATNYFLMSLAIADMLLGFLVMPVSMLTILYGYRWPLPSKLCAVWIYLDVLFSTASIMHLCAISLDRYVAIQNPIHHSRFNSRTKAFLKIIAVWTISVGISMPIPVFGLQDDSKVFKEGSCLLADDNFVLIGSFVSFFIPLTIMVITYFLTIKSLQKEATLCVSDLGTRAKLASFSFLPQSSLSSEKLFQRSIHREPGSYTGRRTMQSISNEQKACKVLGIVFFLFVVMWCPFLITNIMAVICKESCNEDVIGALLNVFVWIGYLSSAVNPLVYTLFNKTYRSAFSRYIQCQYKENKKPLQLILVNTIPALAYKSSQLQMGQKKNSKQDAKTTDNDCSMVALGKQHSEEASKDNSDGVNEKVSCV

In the case of `NCCc1ccc(CCCc2ccccc2)cc1`, the Ki in test [1] came out at 60 nM. The same measure, in the same setting: to `CCCCCOc1ccc2c(c1)Cc1ccccc1C2CN` (stereo not drawn) belongs 23 nM; to `CCCCCCc1cc(OC)c(CC(C)N)cc1OC` (stereo not drawn), 2.5 nM.

In the case of `NCC(c1ccccc1)c1ccc(Br)cc1` (stereo not drawn), the results for the inhibition constant Ki in test [1] and in test [2] were 260 nM and 3.5 nM, respectively.

Regarding `NCC1c2ccccc2Cc2ccccc21`, the Ki is above 10000 nM in test [3], above 10 µM in test [4], 43 nM in test [5] and above 10 µM in test [6]. In turn, `NCCc1ccc(Br)cc1` returned a Ki in test [1] of 1770 nM. Same read-out and setting: to `CCCCCCc1ccc(CCN)cc1` belongs 78 nM; to `NCC1c2ccccc2Cc2cc(O)ccc21` (stereo not drawn), 107 nM; to `CCCCCCc1ccc(C(CN)c2ccccc2)cc1` (stereo not drawn), 200 nM. Same read-out and setting: to `NCC1c2ccccc2Cc2cc(CCCc3ccccc3)ccc21` (stereo not drawn) belongs 3.2 nM; to `COc1cc(CC(C)N)c(OC)cc1CCCc1ccccc1` (stereo not drawn), 10 nM. On the same count and under the same terms, then `COc1cc(CC(C)N)c(OC)cc1O` (stereo not drawn), with above 50000 nM; and `COc1cc(OC)c(OC)cc1CC(C)N` (stereo not drawn), with 1200 nM. Regarding `NCC1c2ccccc2Cc2cc(Br)ccc21` (stereo not drawn), the Ki in test [3] is 1200 nM; in test [4], 4.49 µM; in test [1] it was 1.3 nM; in test [2], 1.8 nM; in test [5] it was 3.3 nM; in test [6], above 10 µM. For the compound `CCCCCCc1ccc2c(c1)Cc1ccccc1C2CN` (stereo not drawn), the Ki was found to be 490 nM in test [3]; 0.845 µM in test [4]; 7 nM in test [1]; 62 nM in test [5]; 6.28 µM in test [6].
